Experimental data taken from patent US20070264287A1, “Methods for Increasing the Immune Response in an Animal” (priority 2004, published 2007).

System: NK cell activity
Assay: NK cell activity in old dogs fed a diet fortified with lipoic acid
Format: in vivo
Details: old beagles (Group 3, average age 11.3 years), dry food fortified with 150 ppm lipoic acid on a dry matter basis, six weeks, versus baseline and young and old controls; FIG. 1
Excerpt: The dogs are beagles and Group 1 consists of 10 beagles with the average age of 5.1 years old, Group 2 consists of 10 beagles with an average age of 11.8 years old, and Group 3 consists of 10 beagles with an average age of 11.3 years old. The dogs from all three groups are fed the controlled food for a two week period prior to intervention. […] During the two week period on the control, samples are taken from all dogs and chemical and biological analysis is completed on the samples to establish base line data. Then three groups of dogs eat their respective diets for a six week period of time and after this time period, samples are taken from all of the dogs in the study and chemical and biological analysis is completed on the samples. Baseline data is compared to the data taken at the end of the six week study.

How did the NK cell activity turn out when O=C(O)CCCC[C@@H]1CCSS1 (racemic) [lipoic acid] was run?
The NK cell activity was “increased NK cell activity”.
